The target in assay [1] is GST-CBP(1081-1197) bromodomain (Homo sapiens (Human), UniProt Q92793). Kind of assay: CBP AlphaScreen Assay. The settings on record: binding to biotin-H4(1-21) Ac-K5/8/12/16 peptide. The essentials:
(§1)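 IC50 values derived by variable-slope dose-response fit between negative and DMSO control signals. AlphaScreen signal reports bromodomain association with an H4(1-21) peptide acetylated at K5, K8, K12 and K16.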

A further assay has as its target BRD4(49-170) bromodomain (Homo sapiens (Human), UniProt O60885). The assay can be described thus: BRD4 AlphaScreen Assay. The settings on record: binding to biotin-H4(1-21) Ac-K5/8/12/16 peptide. The essentials:
as §1
Background: Alpha assays give light when donor and acceptor beads are brought close together.

By IC50 is commonly meant the concentration needed to halve the response being measured. Higher therefore signals weaker potency in that assay.

Chain of GST-CBP(1081-1197) bromodomain (Q92793 1081-1197): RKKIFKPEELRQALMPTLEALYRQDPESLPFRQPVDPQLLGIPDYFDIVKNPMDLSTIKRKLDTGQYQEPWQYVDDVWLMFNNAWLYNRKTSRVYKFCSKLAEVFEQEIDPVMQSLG

In the case of `CC(=O)N1CCn2c(C3CC3)nc(N3CCCc4cc(-c5cnn(CCO)c5)ccc43)c2C1` [Example 121, 1-(3-cyclopropyl-1-(6-(1-(2-hydroxyethyl)-1H-pyrazol-4-yl)-3,4-dihydroquinolin-1(2H)-yl)-5,6-dihydroimidazo[1,5-a]pyrazin-7(8H)-yl)ethan-1-one], the IC50 was 576 nM in assay [1] and > 25000 nM on BRD4(49-170) bromodomain.

`CNC(=O)N1CCn2c(C3CCOCC3)nc(-c3cccc4cc(-c5cn(C)nc5C)ncc34)c2C1` [Example 70, 1-(3-(1,3-dimethyl-1H-pyrazol-4-yl)isoquinolin-8-yl)-N-methyl-3-(tetrahydro-2H-pyran-4-yl)-5,6-dihydroimidazo[1,5-a]pyrazine-7(8H)-carboxamide]: the IC50 in assay [1] stood at 12 nM; on BRD4(49-170) bromodomain it was 12300 nM.

For `CC(=O)N1CCn2c(C3CC3)nc(N3CCCc4cc(-c5cnn(C(F)F)c5)ccc43)c2C1` [Example 110, 1-(3-cyclopropyl-1-(6-(1-(difluoromethyl)-1H-pyrazol-4-yl)-3,4-dihydroquinolin-1(2H)-yl)-5,6-dihydroimidazo[1,5-a]pyrazin-7(8H)-yl)ethan-1-one], the IC50 in assay [1] came out at 185 nM; at BRD4(49-170) bromodomain, 11200 nM.

Source of the values: patent US11058688B2, “Imidazopiperazine inhibitors of transcription activating proteins” (Board of Regents, The University of Texas System, priority 2018, dated 2021).
